According to PubChem BioAssay (NCI):
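A five-concentration, 48-hour dose response in 96-well plates underlies each endpoint, interpolated linearly between surrounding concentrations. GI50 = concentration required for 50% inhibition of growth. TGI: total growth inhibition.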

Assays:
Test in all cases: NCI-60 cell line screen, 48 h
SK-OV-3 ovarian = test system: SK-OV-3 ovarian
T-47D breast = test system: T-47D breast
RXF 393 renal = test system: RXF 393 renal
UACC-257 melanoma = test system: UACC-257 melanoma
SF-268 CNS = test system: SF-268 CNS
LOX IMVI melanoma = test system: LOX IMVI melanoma
SNB-75 CNS = test system: SNB-75 CNS
RPMI-8226 leukemia = test system: RPMI-8226 leukemia
SK-MEL-28 melanoma = test system: SK-MEL-28 melanoma
CCRF-CEM leukemia = test system: CCRF-CEM leukemia
SN12C renal = test system: SN12C renal
CAKI-1 renal = test system: CAKI-1 renal
M14 melanoma = test system: M14 melanoma
EKVX NSCLC = test system: EKVX NSCLC
OVCAR-4 ovarian = test system: OVCAR-4 ovarian
U251 CNS = test system: U251 CNS
SK-MEL-2 melanoma = test system: SK-MEL-2 melanoma
OVCAR-3 ovarian = test system: OVCAR-3 ovarian
NCI-H460 lung = test system: NCI-H460 lung
HCT-116 colon = test system: HCT-116 colon
HS 578T breast = test system: HS 578T breast
A549 NSCLC = test system: A549 NSCLC
SK-MEL-5 melanoma = test system: SK-MEL-5 melanoma
KM12 colon = test system: KM12 colon
K-562 leukemia = test system: K-562 leukemia
DU-145 prostate = test system: DU-145 prostate
PC-3 prostate = test system: PC-3 prostate
SNB-19 CNS = test system: SNB-19 CNS
UO-31 renal = test system: UO-31 renal
BT-549 breast = test system: BT-549 breast
HOP-62 NSCLC = test system: HOP-62 NSCLC
SW-620 colon = test system: SW-620 colon
NCI/ADR-RES ovarian = test system: NCI/ADR-RES ovarian
MOLT-4 leukemia = test system: MOLT-4 leukemia
NCI-H23 lung = test system: NCI-H23 lung
SR leukemia = test system: SR leukemia
MCF7 breast = test system: MCF7 breast
SF-295 CNS = test system: SF-295 CNS
HCC-2998 colon = test system: HCC-2998 colon
TK-10 renal = test system: TK-10 renal
IGROV1 ovarian = test system: IGROV1 ovarian
SF-539 CNS = test system: SF-539 CNS
NCI-H522 lung = test system: NCI-H522 lung
HOP-92 NSCLC = test system: HOP-92 NSCLC
MDA-MB-435 = test system: MDA-MB-435
MALME-3M melanoma = test system: MALME-3M melanoma
786-0 renal = test system: 786-0 renal
HT29 colon = test system: HT29 colon
COLO 205 colon = test system: COLO 205 colon
MDA-MB-231 breast = test system: MDA-MB-231 breast
HCT-15 colon = test system: HCT-15 colon
ACHN renal = test system: ACHN renal
A498 renal = test system: A498 renal
HL-60(TB) leukemia = test system: HL-60(TB) leukemia
OVCAR-8 ovarian = test system: OVCAR-8 ovarian
UACC-62 melanoma = test system: UACC-62 melanoma
NCI-H226 lung = test system: NCI-H226 lung
OVCAR-5 ovarian = test system: OVCAR-5 ovarian

## NC(=O)c1c(Br)n(C2OC(CO)C(O)C2O)c2ncnc(N)c12 (stereo unspecified)
SK-OV-3 ovarian
  GI50: 1.05 µM
  TGI: 9.95 µM
T-47D breast
  GI50: 0.132 µM
  TGI: 2.88 µM
RXF 393 renal
  GI50: 1.37 µM
  TGI: 12.9 µM
UACC-257 melanoma
  GI50: 2.99 µM
  TGI: 18.4 µM
SF-268 CNS
  GI50: 2.49 µM
  TGI: 13.4 µM
LOX IMVI melanoma
  GI50: 0.684 µM
  TGI: 6.09 µM
SNB-75 CNS
  GI50: 1.92 µM
  TGI: 18 µM
RPMI-8226 leukemia
  GI50: 1.87 µM
  TGI: 7.51 µM
SK-MEL-28 melanoma
  GI50: 3.02 µM
  TGI: 13.8 µM
CCRF-CEM leukemia
  GI50: 0.8 µM
  TGI: 6.37 µM
SN12C renal
  GI50: 1.61 µM
  TGI: 12.9 µM
CAKI-1 renal
  GI50: 0.369 µM
  TGI: 2.43 µM
M14 melanoma
  GI50: 1.19 µM
  TGI: 8.76 µM
EKVX NSCLC
  GI50: 4.31 µM
  TGI: 59.8 µM
OVCAR-4 ovarian
  GI50: 1.14 µM
  TGI: 15.3 µM
U251 CNS
  GI50: 2.92 µM
  TGI: > 86.4 µM
SK-MEL-2 melanoma
  GI50: 1.82 µM
  TGI: 5.62 µM
OVCAR-3 ovarian
  GI50: 1.24 µM
  TGI: 5.59 µM
NCI-H460 lung
  GI50: 1.8 µM
  TGI: 12.5 µM
HCT-116 colon
  GI50: 0.71 µM
  TGI: > 53.4 µM
HS 578T breast
  GI50: 1.48 µM
  TGI: 9.36 µM
A549 NSCLC
  GI50: 1.97 µM
  TGI: 21.4 µM
SK-MEL-5 melanoma
  GI50: 2.65 µM
  TGI: 9.85 µM
KM12 colon
  GI50: 1.91 µM
  TGI: 12.3 µM
K-562 leukemia
  GI50: 1.43 µM
  TGI: > 60.4 µM
DU-145 prostate
  GI50: 0.544 µM
  TGI: 8.86 µM
PC-3 prostate
  GI50: 0.593 µM
  TGI: 7.57 µM
SNB-19 CNS
  GI50: 5.16 µM
  TGI: 59.8 µM
UO-31 renal
  GI50: 2.16 µM
  TGI: 13.6 µM
BT-549 breast
  GI50: 1.08 µM
  TGI: 11.2 µM
HOP-62 NSCLC
  GI50: 2.86 µM
  TGI: 25.3 µM
SW-620 colon
  GI50: 0.545 µM
  TGI: 9.87 µM
NCI/ADR-RES ovarian
  GI50: 1.34 µM
  TGI: 12.5 µM
MOLT-4 leukemia
  GI50: 0.36 µM
  TGI: 3.46 µM
NCI-H23 lung
  GI50: 2.15 µM
  TGI: 13 µM
SR leukemia
  GI50: 1.11 µM
  TGI: 4.9 µM
MCF7 breast
  GI50: 0.246 µM
  TGI: 2.72 µM
SF-295 CNS
  GI50: 2.78 µM
  TGI: 18.7 µM
HCC-2998 colon
  GI50: 1.71 µM
  TGI: 13.2 µM
TK-10 renal
  GI50: 0.839 µM
  TGI: 13.7 µM
IGROV1 ovarian
  GI50: 0.609 µM
  TGI: 3.95 µM
SF-539 CNS
  GI50: 2.43 µM
  TGI: 8.73 µM
NCI-H522 lung
  GI50: 2.54 µM
  TGI: 11 µM
HOP-92 NSCLC
  GI50: 0.45 µM
  TGI: 7.08 µM
MDA-MB-435
  GI50: 1.73 µM
  TGI: 7.68 µM
MALME-3M melanoma
  GI50: 1.47 µM
  TGI: 6.34 µM
786-0 renal
  GI50: 3.04 µM
  TGI: 41.9 µM
HT29 colon
  GI50: 1.03 µM
  TGI: 32 µM
COLO 205 colon
  GI50: 1.45 µM
  TGI: 6.07 µM
MDA-MB-231 breast
  GI50: 3.55 µM
  TGI: 29.1 µM
HCT-15 colon
  GI50: 0.427 µM
  TGI: 7.03 µM
ACHN renal
  GI50: 0.749 µM
  TGI: 10.4 µM
A498 renal
  GI50: 3.09 µM
  TGI: 15.6 µM
HL-60(TB) leukemia
  GI50: 0.702 µM
  TGI: 4.11 µM
OVCAR-8 ovarian
  GI50: 0.763 µM
  TGI: 12.3 µM
UACC-62 melanoma
  GI50: 1.63 µM
  TGI: 3.83 µM
NCI-H226 lung
  GI50: 4.78 µM
  TGI: 57.6 µM
OVCAR-5 ovarian
  GI50: 1.39 µM
  TGI: 45.5 µM
